Data: patent US11800869B2, “Use of 6-oxo-1,4,5,6-tetrahydropyridazine-3-carboxylic acid, 1-methyl 6-oxo-1,4,5,6-tetrahydropyridazine-3-carboxylic acid and 1-alkyl-6-oxo-1,4,5,6-tetrahydropyridazine-3-carboxylic acid for improving growth performance in plants” (Advanced Crop Chem LLP, priority 2020, dated 2023)
Values joined by “and” are separate entries in the source; they are usually repeats but may differ in a detail not shown here. Equal values may be shown once.

How the values were obtained:
Assay type in all cases: in vivo
[1] = tested on: wheat plants (Variety Skyfall); test: Foliar treatment of greenhouse grown wheat, foliar and root biomass (Example 4); settings: foliar treatment, 30 days later, Zadocks growth stage 22-24
Procedure: Wheat, corn and pepper seeds were treated with 6-oxo-1,4,5,6-tetrahydropyridizine-3-carboxylic acid (THP) using the same methodology and growth conditions as described in example 1 and the resulting plants were also treated with a light foliar cover spray using an electric hand-held sprayer. (100 g in 200 L water plus 0.25% Nouryon wetter) of 6-oxo-1,4,5,6 tetrahydropyridazine-3-carboxylic acid (30 days post emergence (wheat at Zadoks GS 14 (see FIG. 1), maize at V2, Pepper at 3-4 leaf stage) and then assessed for root and shoot biomass 45 days later. At 75 days post planting the plants were assessed for root and shoot biomass as measured with dry weight. Greenhouse grown wheat plants (Variety […]) were given foliar treatment of 1-methyl 6-oxo-1,4,5,6 tetrahydropyridazine-3-carboxylic acid (MTHP) or 6-oxo-1,4,5,6 tetrahydropyridazine-3-carboxylic acid (THP), utilizing the same methodology as in example 2. Foliar and root biomass were determined 30 days later at Zadocks growth stage 22-24.

[2] = tested on: Soybean seeds, cv. Viking; test: Soybean seed treatment, root nodulation by Bradyrhizobium japonicum (Example 19); settings: seed treatment 0.1 mM; greenhouse 75° F; 4 weeks after planting; untreated 655.8 mg
Procedure: Soybean seed were treated with 6-oxo-1,4,5,6 tetrahydropyridazine-3-carboxylic acid to examine the effect on root nodulation by a nitrogen fixing bacterium.
Soybean seeds, cv. Viking, were treated with 6-oxo-1,4,5,6 tetrahydropyridazine-3-carboxylic acid (0.1 mM) and the resulting seedlings were grown in a greenhouse at 75° F. under natural light during a winter season. The extent of root nodulation by Bradyrhizobium japonicum, a nitrogen fixing bacterium was determined 4 weeks after planting. Plants from the untreated seeds averaged 655.8 mg of nodules per plant versus 763.7 mg for the plants from treated seeds.

Wheat = test: Foliar treatment dose series, root and shoot fresh weight, wheat (Example 8); settings: 35 days post treatment; for Root, FWt: dose 0: 1.8; for Shoot, FWt: dose 0: 3.2
Procedure: (§1) Corn and wheat plants were given a foliar treatment […] (as described in Example 2) with 6-oxo-1,4,5,6 tetrahydropyridazine-3-carboxylic acid (THP) and then assessed for root and shoot biomass. Three treatment dosages were applied (Table 2). Plants were grown in a greenhouse with a diurnal cycle of 55-75F with ambient light. The plants were grown in a coarse river sand in 4″ pots with 0.5 g of Osmacote/pot. The mean root and shoot fresh weights were assessed at 35 days post treatment.

[3] = tested on: Soybean seeds (Var. Viking); test: Soybean seed treatment, germination paper, shoot fresh weight (Example 10); settings: seeds imbibed three minutes in 0.01 mM; germination paper 75-85° F; two table lines, Control 98.3 and 106.2
Procedure: Soybean seeds were treated with 6-oxo-1,4,5,6 tetrahydropyridazine-3-carboxylic acid and the weights of the shoots were determined as shown in Table 2. Early seedling emergence is important for early establishment of a vigorous and productive crop. Soybean seeds (Var. Viking) were treated by imbibing them for three minutes with a solution of 0.01 mM 6-oxo-1,4,5,6 tetrahydropyridazine-3-carboxylic acid in an aqueous solution also containing soft soap and glycerol at pH 5.7-5.8. The control seeds were imbibed in aqueous solution containing only the soft soap and glycerol at pH 5.7-5.8. The seeds were placed on moist germination paper and allowed to germinate at 75-85° F. The fresh weights were taken to assess the shoot development.

Corn = test: Foliar treatment dose series, root and shoot fresh weight, corn (Example 8); settings: 35 days post treatment; for Root, FWt: dose 0: 2.3; for Shoot, FWt: dose 0: 6.1
Procedure: as §1

[4] = tested on: wheat (Var. VitPro) seedlings; test: Foliar treatment of wheat, relative water content under drought stress (Example 17); settings: drought stressed, flag leaves, untreated drought stressed 35.8%
Procedure: Wheat seedlings were given foliar treatments with a range of concentrations of 6-oxo-1,4,5,6 tetrahydropyridazine-3-carboxylic acid and the seedlings were grown to near maturity and drought stressed. Their relative water contents were determined to examine the effectiveness of different concentrations of 6-oxo-1,4,5,6-tetrahydropyridizine-3-carboxylic acid in conferring drought resistance.
Sets of wheat (Var. VitPro) seedlings were given foliar treatments of 6-oxo-1,4,5,6 tetrahydropyridazine-3-carboxylic acid at concentrations of 1 mM or 0.1 mM in aqueous solutions. Two treatments were made; one at Zaddok GS 12(FIG. 1) and a second at Zadoks GS 14 (FIG. 1) and the plants grown until the first flag leaf was fully developed on the control plants. The treated plants and one set of controls were then drought stressed and the relative water content was determined for each set of plants. There were two sets of control plants; one was maintained with normal watering and a second control was drought stressed along with the treated plants. When each of the plants had at least two wilted leaves the water content of the drought stressed plants was determined relative to that of the normal, well-watered control plants. The flag leaves were harvested and used to determine the relative water content.

[5] = tested on: Winter wheat variety AWC 13; test: Wheat seed treatment, field grown, root biomass (Example 14); settings: untreated 0.66
Procedure: Wheat seeds were treated with 6-oxo-1,4,5,6 tetrahydropyridizine-3-carboxylic acid treated plants to examine the impact on shoot and root biomass for field grown plants. Winter wheat variety AWC 13 seeds were treated with 6-oxo-1,4,5,6-tetrahydropyridazine-3-carboxylic acid and field grown. The plants from seeds treated with 6-oxo-1,4,5,6 tetrahydropyridazine-3-carboxylic acid had larger root biomass (0.85 g dry weight/plant) compared with plants from untreated seeds (0.66 g dry weight/plant).

[6] = tested on: Field grown wheat plants (Var: AWC 13); test: Foliar treatment of field grown wheat (Example 6); settings: foliar treatment at Zadoks GS 25-26, 100 g in 200 L water, mean of 10 plants
Procedure: Field grown wheat plants (Var: AWC 13) were given foliar treatment at Zadoks GS 25-26 (FIG. 1) of 6-oxo-1,4,5,6 tetrahydropyridazine-3-carboxylic acid (THP) or 1-methyl 6-oxo-1,4,5,6 tetrahydropyridazine-3-carboxylic acid (MTHP) both at 100 g in 200 L water plus 0.25% Nouryon wetter. Plants were grown under standard UK wheat growing cultural practice (https://andb.org.uk/wheatgg). Yield was assessed at harvest.

[7] = foliar dose 50 g/ha in 200 L/ha
[8] = foliar dose 100 g/ha in 200 L/ha
[9] = foliar dose 200 g/ha in 200 L/ha

Compound: O=C1CCC(C(=O)O)=NN1 [THP, 6-oxo-1,4,5,6 tetrahydropyridazine-3-carboxylic acid]
- Dry Weight Shoot ([1]; Con 0.55): 0.74 g
- Dry Weight Root ([1]; Con 1.03): 1.45 g
- nodules per plant [2]: 763.7 mg
- Root, FWt (Wheat; [7]): 2.1 g
- Shoot, FWt (Wheat; [7]): 4.4 g
- Root, FWt (Wheat; [8]): 1.9 g
- Shoot, FWt (Wheat; [8]): 5.2 g
- Root, FWt (Wheat; [9]): 2.7 g
- Shoot, FWt (Wheat; [9]): 5.8 g
- Shoots, Fresh wt. [3]: 114.3 mg and 128.6 mg
- Root, FWt (Corn; [7]): 2.7 g
- Shoot, FWt (Corn; [7]): 7.8 g
- Root, FWt (Corn; [8]): 3.4 g
- Shoot, FWt (Corn; [8]): 7.2 g
- Root, FWt (Corn; [9]): 1.8 g
- Shoot, FWt (Corn; [9]): 5.1 g
- water content retained, relative to normally watered plants ([4]; two foliar treatments 0.1 mM): 67.7%
- water content retained, relative to normally watered plants ([4]; two foliar treatments 1 mM): 68.3%
- root biomass [5]: 0.85 g dry weight/plant
- Dry Weight Shoot ([6]; Con 0.47): 1.01
- Dry Weight Root ([6]; Con 0.65): 1.5
